Experimental data as given in patent US8420696B2, “Use of low-dose ladostigil for neuroprotection” (priority 2005, dated 2013).

What was measured:
MAO-A = biological target: T1, MAO-A (Rattus norvegicus, UniProt P21396); assay: Example 2: MAO-A activity in homogenates of striatum; assay type: in vivo, rats; conditions: chronic 1 mg/kg; for MAO-A (%) inhibition: Striatum
T1 construct: from tissue; host or cells: striatum homogenate of dosed Sprague-Dawley rats
T1 sequence (P21396 1-526): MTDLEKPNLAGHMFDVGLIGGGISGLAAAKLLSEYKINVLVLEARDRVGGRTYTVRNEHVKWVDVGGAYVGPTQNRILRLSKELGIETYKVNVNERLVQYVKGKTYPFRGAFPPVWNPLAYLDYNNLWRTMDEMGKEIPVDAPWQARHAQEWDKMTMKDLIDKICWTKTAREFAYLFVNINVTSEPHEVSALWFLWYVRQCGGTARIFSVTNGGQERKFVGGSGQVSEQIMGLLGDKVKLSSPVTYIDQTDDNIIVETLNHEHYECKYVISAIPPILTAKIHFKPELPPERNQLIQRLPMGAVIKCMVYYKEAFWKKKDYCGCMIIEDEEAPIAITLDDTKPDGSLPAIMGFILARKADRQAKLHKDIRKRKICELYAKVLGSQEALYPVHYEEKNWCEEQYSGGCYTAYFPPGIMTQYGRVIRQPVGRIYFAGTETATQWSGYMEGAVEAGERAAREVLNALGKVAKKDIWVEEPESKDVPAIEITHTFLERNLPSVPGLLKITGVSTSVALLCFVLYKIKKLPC
Protocol: (§1) The effect of chronic ladostigil treatment on ChE activity in the cortex and hippocampus of rats was determined one week after icv STZ in 12 rats (3 treated with water and 9 with ladostigil). The effect of acute treatment with ladostigil 1 or 17 mg/kg was determined 2 hrs after drug administration. […] The brain was rapidly removed, washed with saline on ice and the cortex, hippocampus and striatum dissected out, quickly weighed and stored at −70° C. until assay. Total ChE activity in the cortex and hippocampus was measured as described in Wang et al., Gender differences in the effect of rivastigmine on brain cholinesterase activity and cognitive function in rats, Neuropharmacology (2000) 39:497-506, using the spectrophotometric method of Ellman et al., A new and rapid colorimetric determination of acetylcholinesterase activity, Biochem. Pharmacol. (1961) 7:88-95 with acetylthiocholine (Sigma Ltd) as a substrate using homogenate of 100 mg tissue in 1 ml phosphate buffer. To determine only butyrylcholinesterase (BuChE) activity the amounts of tissue/ml of buffer were increased 3-fold and butyrylthiocholine (Sigma Ltd) was used as a substrate. MAO A and B activity was measured in homogenates of striatum as described in Weinstock et al., Limited potentiation of blood pressure response to oral tyramine by brain-selective monoamine oxidase A-B inhibitor, TV-3326 in conscious rabbits, Neuropharmacology (2002) 43:999-1005.

[1] = tested on: rats injected icv with STZ (episodic memory); assay: Object recognition test after icv STZ; assay type: in vivo, Sprague-Dawley rats; conditions: for Effect on the deficit in episodic memory: four weeks after icv STZ
Protocol: Male Sprague-Dawley rats (63) weighing 320-340 g, aged 4 months, were anesthetized by an intraperitoneal injection of Equithesin 0.3 ml/kg. STZ (0.5 mg) dissolved in 2 μl artificial cerebrospinal fluid (CSF) was injected into each lateral ventricle of 45 rats. The stereotaxic co-ordinates for icv injection were: 0.9 mm posterior, 1.8 mm lateral and 3.8 mm ventral from the bregma level. Control rats (18) received a bilateral injection of 2 μl artificial CSF. […] The remaining 20 rats received 1 ml/kg water. The rats were housed two per cage with free access to food and water until the behavioral, enzymatic and cytochemical measurements were completed.
Episodic memory in the object recognition test was still intact 2 but not 4 weeks after a single icv STZ injection (Table 3). Therefore, rats that were treated with ladostigil or water were tested for object and place recognition 4 weeks after icv injection of STZ or CSF. The object recognition test measured non-spatial working memory with characteristics of episodic memory that is primarily affected in senile dementia (Bartolini et al., Aniracetam restores object recognition impaired by age, scopolamine, and nucleus basalis lesions, Pharmacol. Biochem. Behav. (1996) 53:277-83). The test depended on intact cortical and hippocampal function (Winters et al., Double dissociation between the effects of peri-postrhinal cortex and hippocampal lesions on tests of object recognition and spatial memory: heterogeneity of function within the temporal lobe, J. Neuroscience (2004) 24:5901-8), while place recognition, another manifestation of spatial memory, was dependent on intact hippocampal function. The experiments were carried out as previously described in Mumby et al., Hippocampal damage and exploratory preferences in rats: memory for objects, places, and contexts, Learning Memory (2002) 9:49-57, in a box made of dark Perspex (60×60 cm and 50 cm high), covered with a dark Perspex lid. In order to increase their interest in the objects, rats were familiarized with the test arena by placing them in it for 5 min on each of 3 successive days and the object recognition test performed on the 4th day. Two identical objects were placed in the arena and the time taken by the rats to explore each object during a period of 3 min was recorded. One hour later, the objects were replaced by one that was identical to the two used in the first test and a second one that was different from them and the time taken to explore each of them was again recorded. The following day, the place recognition test was carried out with two identical objects as described above but different from those used previously. One hour later, the one of the two objects was moved to another position in the arena as described in Mumby et al., supra.
Group means of 3 measures in the object and place recognition tests, duration of exploration in first and second phases and discrimination index were submitted to one way ANOVA. Mean daily escape latencies for trial 1 and trial 2 in the MWM in each group were analyzed by repeated measures ANOVA for DAY and GROUP followed by Duncan's post hoc test where appropriate. Histological data were analyzed by univariate ANOVA followed by Duncan's post hoc test. All values represent means±SEM.

[2] = biological target: T2, butyrylcholinesterase (BuChE) (Rattus norvegicus, UniProt Q9JKC1); assay: Example 2: BuChE activity in cortex and hippocampus after ladostigil treatment; assay type: in vivo, rats; conditions: chronic 1 mg/kg
T2 construct: from tissue; host or cells: cortex and hippocampus homogenates of dosed Sprague-Dawley rats
Protocol: as §1

[3] = tested on: dopaminergic neuroblastoma SH-SY5Y cells; conditions: cited from earlier work

T2 sequence (Q9JKC1 24-597): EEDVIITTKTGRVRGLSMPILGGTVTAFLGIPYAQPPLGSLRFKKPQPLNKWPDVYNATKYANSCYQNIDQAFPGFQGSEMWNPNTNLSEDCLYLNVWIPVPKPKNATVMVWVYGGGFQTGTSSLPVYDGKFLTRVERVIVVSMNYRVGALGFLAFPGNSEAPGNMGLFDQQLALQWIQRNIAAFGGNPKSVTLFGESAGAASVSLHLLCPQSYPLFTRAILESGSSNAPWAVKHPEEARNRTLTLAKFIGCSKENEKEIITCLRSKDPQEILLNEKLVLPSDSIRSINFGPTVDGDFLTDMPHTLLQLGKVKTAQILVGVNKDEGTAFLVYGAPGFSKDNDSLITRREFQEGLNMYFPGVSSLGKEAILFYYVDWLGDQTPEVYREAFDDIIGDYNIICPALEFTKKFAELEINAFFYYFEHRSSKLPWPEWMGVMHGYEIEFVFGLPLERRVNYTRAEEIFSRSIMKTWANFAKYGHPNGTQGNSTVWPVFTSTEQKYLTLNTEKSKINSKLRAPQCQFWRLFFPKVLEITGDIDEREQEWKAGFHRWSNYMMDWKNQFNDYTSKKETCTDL

C#CCN[C@@H]1CCc2ccc(OC(=O)N(C)CC)cc21 [ladostigil, R(+)-6-(N-methyl,N-ethyl-carbamoyloxy)-N′-propargyl-1-aminoindan]
MAO-A (%) inhibition (MAO-A; 60 min): 2.8 ± 2.5%
MAO-A (%) inhibition (MAO-A; 120 min): 3.8 ± 2.0%
Effect on striatal MAO-A activity (MAO-A): no effect
Deficit in episodic memory two days after dose ([1]; 17 mg/kg single dose, two days later when ChE was no longer inhibited): returned two days later
Discrimination index, Object ([1]; STZ (4 weeks) + 17 mg/kg acute): 0.348 ± 0.112
Discrimination index, Object ([1]; STZ (4 weeks) + 17 mg/kg acute, two days later): −0.112 ± 0.08
Discrimination index, Object ([1]; STZ (4 weeks) + ladostigil 1 mg/kg acute): 0.010 ± 0.08
Discrimination index, Object ([1]; STZ (4 weeks) + ladostigil 1 mg/kg chronic, mean ± s.e.m.): 0.238 ± 0.05
Discrimination in object recognition test ([1]; icv STZ with chronic ladostigil, significantly >0, P<0.05): significant discrimination index
Effect on the deficit in episodic memory ([1]; single dose 17 mg/kg): the memory deficit was abolished
Effect on the deficit in episodic memory ([1]; single dose of 1 mg/kg): no effect
BuChE (%) inhibition ([2]; Cortex, 60 min): 16.2 ± 2.5 %
BuChE (%) inhibition ([2]; Cortex, 120 min): 15.7 ± 3.2 %
BuChE (%) inhibition ([2]; Hippocampus, 60 min): 7.3 ± 2.5%
BuChE (%) inhibition ([2]; Hippocampus, 120 min): 5.4 ± 2.8%
Inhibition of BuChE in the hippocampus [2]: no significant inhibition
Inhibition of BuChE in the cortex ([2]; seven days after icv STZ, 1 or 2 hrs after the last dose): 16%
Apoptosis in SH-SY5Y cells exposed to the NO donor Sin1 ([3]; 0.1-1 μM): prevented apoptosis
Apoptosis induced by Sin-1 in cultured SH-SY5Y cells [3]: suppress apoptosis
